Assay results taken from article PMC10141580, “Cyclic Dichalcogenides Extend the Reach of Bioreductive Prodrugs to Harness Thiol/Disulfide Oxidoreductases: Applications to seco-Duocarmycins Targeting the Thioredoxin System” (ACS Central Science, 2023).
Like-named read-outs stand apart in the source and are kept apart here.

Legend:
[1] = test system: NCI-60 standardized human tumor cell line panel; experiment: cells; type: cell-based
HeLa-HRE cells = experiment: Resazurin cytotoxicity assay, HeLa-HRE, 48 h
Protocol: We used A549 lung cancer and HeLa cervical cancer cell lines for initial screening of the prodrugs.
HeLa-HRE cells were treated with prodrugs of the
Dose -response curves were calculated from at least 27 incremental single concentrations over a
range of at least three log units.

[2] = cell line A549/ATCC (LC:A549/ATCC), TMI sheet
[3] = cell line BT-549 (BR:BT-549), TMI sheet
[4] = cell line CCRF-CEM (LE:CCRF-CEM), TMI sheet
[5] = cell line COLO 205 (CO:COLO 205), TMI sheet
[6] = cell line EKVX (LC:EKVX), TMI sheet
[7] = cell line HCC-2998 (CO:HCC-2998), TMI sheet
[8] = cell line HCT-15 (CO:HCT-15), TMI sheet
[9] = cell line HCT-116 (CO:HCT-116), TMI sheet
[10] = cell line HL-60(TB) (LE:HL-60(TB)), TMI sheet
[11] = cell line HOP-62 (LC:HOP-62), TMI sheet
[12] = cell line HOP-92 (LC:HOP-92), TMI sheet
[13] = cell line HT29 (CO:HT29), TMI sheet
[14] = cell line K-562 (LE:K-562), TMI sheet
[15] = cell line KM12 (CO:KM12), TMI sheet
[16] = cell line LOX IMVI (ME:LOX IMVI), TMI sheet
[17] = cell line M14 (ME:M14), TMI sheet
[18] = cell line MALME-3M (ME:MALME-3M), TMI sheet
[19] = cell line MCF7 (BR:MCF7), TMI sheet
[20] = cell line MDA-MB-435 (ME:MDA-MB-435), TMI sheet
[21] = cell line MOLT-4 (LE:MOLT-4), TMI sheet
[22] = cell line NCI-H23 (LC:NCI-H23), TMI sheet
[23] = cell line NCI-H226 (LC:NCI-H226), TMI sheet
[24] = cell line RPMI-8226 (LE:RPMI-8226), TMI sheet
[25] = cell line SF-539 (CNS:SF-539), TMI sheet
[26] = cell line SK-MEL-5 (ME:SK-MEL-5), TMI sheet
[27] = cell line SK-MEL-28 (ME:SK-MEL-28), TMI sheet
[28] = cell line SNB-19 (CNS:SNB-19), TMI sheet
[29] = cell line SR (LE:SR), TMI sheet
[30] = cell line SW-620 (CO:SW-620), TMI sheet
[31] = cell line T-47D (BR:T-47D), TMI sheet
[32] = cell line U251 (CNS:U251), TMI sheet
[33] = cell line UACC-62 (ME:UACC-62), TMI sheet
[34] = cell line UACC-257 (ME:UACC-257), TMI sheet

COc1cc2cc(C(=O)N3CC(CCl)c4c3cc(OC(=O)N3CCN(C)C5CSSCC53)c3ccccc43)[nH]c2c(OC)c1OC (mixture of isomers) [Me-SS66T-CBI-TMI]
GI50 ([1]; U251, read-out: GI50): 11 nM
GI50 ([1]; UACC-62, read-out: GI50): 15 nM
GI50 ([1]; UACC-257, read-out: GI50): 24 nM
NCI-60 screening: Log(GI50) [1, 2]: -7.92
NCI-60 screening: Log(RedIndex) [1, 2]: 2.22
GI50 ([1]; cell line A549/ATCC (LC:A549/ATCC), TMI sheet, read-out: NCI-60 screening: Raw GI50): 12 nM
NCI-60 screening: Log(GI50) [1, 3]: -7.81
NCI-60 screening: Log(RedIndex) [1, 3]: 2.01
GI50 ([1]; cell line BT-549 (BR:BT-549), TMI sheet, read-out: NCI-60 screening: Raw GI50): 15 nM
NCI-60 screening: Log(GI50) [1, 4]: -7.58
NCI-60 screening: Log(RedIndex) [1, 4]: 1.58
NCI-60 screening: Log(GI50) [1, 5]: -7.31
NCI-60 screening: Log(RedIndex) [1, 5]: 1.44
NCI-60 screening: Log(GI50) [1, 6]: -7.74
NCI-60 screening: Log(RedIndex) [1, 6]: 2.03
GI50 ([1]; cell line EKVX (LC:EKVX), TMI sheet, read-out: NCI-60 screening: Raw GI50): 18 nM
NCI-60 screening: Log(GI50) [1, 7]: -7.81
NCI-60 screening: Log(RedIndex) [1, 7]: 1.99
GI50 ([1]; cell line HCC-2998 (CO:HCC-2998), TMI sheet, read-out: NCI-60 screening: Raw GI50): 15 nM
NCI-60 screening: Log(GI50) [1, 8]: -7.66
NCI-60 screening: Log(RedIndex) [1, 8]: 1.9
NCI-60 screening: Log(GI50) [1, 9]: -7.74
NCI-60 screening: Log(RedIndex) [1, 9]: 1.92
GI50 ([1]; cell line HCT-116 (CO:HCT-116), TMI sheet, read-out: NCI-60 screening: Raw GI50): 18 nM
NCI-60 screening: Log(GI50) [1, 10]: -7.92
NCI-60 screening: Log(RedIndex) [1, 10]: 1.8
GI50 ([1]; cell line HL-60(TB) (LE:HL-60(TB)), TMI sheet, read-out: NCI-60 screening: Raw GI50): 12 nM
NCI-60 screening: Log(GI50) [1, 11]: -7.91
NCI-60 screening: Log(RedIndex) [1, 11]: 1.68
GI50 ([1]; cell line HOP-62 (LC:HOP-62), TMI sheet, read-out: NCI-60 screening: Raw GI50): 12 nM
NCI-60 screening: Log(GI50) [1, 12]: -7.57
NCI-60 screening: Log(RedIndex) [1, 12]: 1.97
GI50 ([1]; cell line HOP-92 (LC:HOP-92), TMI sheet, read-out: NCI-60 screening: Raw GI50): 27 nM
NCI-60 screening: Log(GI50) [1, 13]: -7.47
NCI-60 screening: Log(RedIndex) [1, 13]: 1.65
GI50 ([1]; cell line HT29 (CO:HT29), TMI sheet, read-out: NCI-60 screening: Raw GI50): 34 nM
NCI-60 screening: Log(GI50) [1, 14]: -7.61
NCI-60 screening: Log(RedIndex) [1, 14]: 1.44
GI50 ([1]; cell line K-562 (LE:K-562), TMI sheet, read-out: NCI-60 screening: Raw GI50): 25 nM
NCI-60 screening: Log(GI50) [1, 15]: -7.36
NCI-60 screening: Log(RedIndex) [1, 15]: 1.68
NCI-60 screening: Log(GI50) [1, 16]: -7.91
NCI-60 screening: Log(RedIndex) [1, 16]: 1.96
GI50 ([1]; cell line LOX IMVI (ME:LOX IMVI), TMI sheet, read-out: NCI-60 screening: Raw GI50): 12 nM
NCI-60 screening: Log(GI50) [1, 17]: -7.98
NCI-60 screening: Log(RedIndex) [1, 17]: 2.16
GI50 ([1]; cell line M14 (ME:M14), TMI sheet, read-out: NCI-60 screening: Raw GI50): 10 nM
NCI-60 screening: Log(GI50) [1, 18]: -7.86
NCI-60 screening: Log(RedIndex) [1, 18]: 2.06
NCI-60 screening: Log(GI50) [1, 19]: -8.28
NCI-60 screening: Log(RedIndex) [1, 19]: 1.78
NCI-60 screening: Log(GI50) [1, 20]: -7.56
NCI-60 screening: Log(RedIndex) [1, 20]: 1.81
GI50 ([1]; cell line MDA-MB-435 (ME:MDA-MB-435), TMI sheet, read-out: NCI-60 screening: Raw GI50): 27 nM
NCI-60 screening: Log(GI50) [1, 21]: -8
NCI-60 screening: Log(RedIndex) [1, 21]: 1.78
NCI-60 screening: Log(GI50) [1, 22]: -8.02
NCI-60 screening: Log(RedIndex) [1, 22]: 1.69
GI50 ([1]; cell line NCI-H23 (LC:NCI-H23), TMI sheet, read-out: NCI-60 screening: Raw GI50): 9.5 nM
NCI-60 screening: Log(GI50) [1, 23]: -7.02
NCI-60 screening: Log(RedIndex) [1, 23]: 1.18
NCI-60 screening: Log(GI50) [1, 24]: -7.47
NCI-60 screening: Log(RedIndex) [1, 24]: 1.64
GI50 ([1]; cell line RPMI-8226 (LE:RPMI-8226), TMI sheet, read-out: NCI-60 screening: Raw GI50): 34 nM
NCI-60 screening: Log(GI50) ([1]; cell line SF-268 (CNS:SF-268), TMI sheet): -7.83
GI50 ([1]; cell line SF-268 (CNS:SF-268), TMI sheet, read-out: NCI-60 screening: Raw GI50): 15 nM
NCI-60 screening: Log(GI50) ([1]; cell line SF-295 (CNS:SF-295), TMI sheet): -8.01
NCI-60 screening: Log(GI50) [1, 25]: -8
NCI-60 screening: Log(RedIndex) [1, 25]: 2.12
GI50 ([1]; cell line SF-539 (CNS:SF-539), TMI sheet, read-out: NCI-60 screening: Raw GI50): 10 nM
NCI-60 screening: Log(GI50) [1, 26]: -7.88
NCI-60 screening: Log(RedIndex) [1, 26]: 2.09
NCI-60 screening: Log(GI50) [1, 27]: -7.84
NCI-60 screening: Log(RedIndex) [1, 27]: 2.39
GI50 ([1]; cell line SK-MEL-28 (ME:SK-MEL-28), TMI sheet, read-out: NCI-60 screening: Raw GI50): 15 nM
NCI-60 screening: Log(GI50) [1, 28]: -7.79
NCI-60 screening: Log(RedIndex) [1, 28]: 2.13
GI50 ([1]; cell line SNB-19 (CNS:SNB-19), TMI sheet, read-out: NCI-60 screening: Raw GI50): 16 nM
NCI-60 screening: Log(GI50) [1, 29]: -8.4
NCI-60 screening: Log(RedIndex) [1, 29]: 1.84
NCI-60 screening: Log(GI50) [1, 30]: -7.24
NCI-60 screening: Log(RedIndex) [1, 30]: 1.51
GI50 ([1]; cell line SW-620 (CO:SW-620), TMI sheet, read-out: NCI-60 screening: Raw GI50): 58 nM
NCI-60 screening: Log(GI50) [1, 31]: -7.3
NCI-60 screening: Log(RedIndex) [1, 31]: 1.58
NCI-60 screening: Log(GI50) [1, 32]: -7.96
NCI-60 screening: Log(RedIndex) [1, 32]: 2.14
NCI-60 screening: Log(GI50) [1, 33]: -7.82
NCI-60 screening: Log(RedIndex) [1, 33]: 2.01
GI50 ([1]; cell line UACC-62 (ME:UACC-62), TMI sheet, read-out: NCI-60 screening: Raw GI50): 15 nM
NCI-60 screening: Log(GI50) [1, 34]: -7.62
NCI-60 screening: Log(RedIndex) [1, 34]: 1.92
mean reductive index ([1]; mean over NCI cell lines, vs P-CC60): ca. 70
GI50 ([1]; read-out: NCI-60 screening: Raw GI50): 160 nM
IC50(HeLa)/IC50(A549) (HeLa-HRE cells; ratio HeLa vs A549): 10
IC50 (HeLa-HRE cells; read-out: IC50(nM): HeLa, HeLa, 48 h): 59 nM
